{"source": "patent US6410054B1", "about": "“Immediate release eplerenone compositions” (G. D. Searle & Co., priority 1998, dated 2002)", "key": {"[1]": {"set-up": "species or system beagle dogs", "conditions": "female, beagle, dog, in vivo", "protocol": "The effect of the particle size of the eplerenone starting material used in the pharmaceutical composition on eplerenone plasma concentrations and relative bioavailability was studied in a dog model. Four healthy female beagle dogs weighing between 8 to 12 kg were intragastrically administered one immediate release (IR) capsule containing the formulation described in Table 30A below followed by about 10 mL of water.\nThe dogs were fasted for 15 to 20 hours prior to administration of the capsule and were not fed again until at least 4 hours after dose administration. Blood samples (approximately 3 mL) were collected by venipuncture in chilled tubes containing heparin at 0, 0.5, 1, 2, 3, 4, 6, 8 and 24 hours after dose administration. The blood samples were immediately placed on ice. Separation of plasma from the blood samples was complete after about 15 minutes of centrifugation. The resulting plasma samples were frozen at about −20° C. and stored until analyzed. Analysis was performed using an LC/MS/MS procedure.\nThis study was conducted using the same four dogs for three formulations that were identical except for the particle size of the eplerenone starting material. […]"}, "renin and aldosterone": {"test_system": "renin and aldosterone", "test": "Treatment of hypertension study: plasma renin and serum aldosterone", "type": "in vivo, humans", "protocol": "The safety and efficacy of a range of doses of eplerenone in the treatment of hypertension relative to placebo were evaluated in a multi-center, randomized, double-blind, placebo-lead-in, parallel group study. […] Four hundred and seventeen patients were randomized to one of eight treatments: (i) placebo BID; […] (iv) eplerenone 400 mg QD; (v) eplerenone 25 mg BID; […] The primary efficacy variable was the change in cuff diastolic blood pressure (ADBP; sitting) measured at trough plasma levels after eight weeks of double blind treatment. The secondary variables measured were the change in trough cuff systolic blood pressure (ΔSBP; sitting), change in 24 hour mean diastolic blood pressure (ΔDBP), and change in 24 hour mean systolic blood pressure (ΔSBP). […] Changes in plasma renin and serum aldosterone after eight weeks of dosing were also analyzed as secondary measures of efficacy."}, "[2]": {"test": "Effect of food study: safety and tolerability", "type": "in vivo, humans", "conditions": "single 100 mg dose, fasted or fed", "protocol": "An open-label randomized, cross-over study was employed to evaluate the pharmacokinetic profiles of eplerenone under fasted and fed conditions, and the safety and tolerability of eplerenone. Safety was assessed based on adverse events, vital signs and clinical laboratory tests. Twelve healthy male subjects were randomized to receive a single 100 mg dose of eplerenone on days 1 and 8 under (i) fasted conditions, or (ii) immediately following a high-fat breakfast. The subjects were orally administered (dosed) a single 100 mg dose of eplerenone in the form of the capsule described in Example 7, together with approximately 200 to 240 mL of water at 0800 hours on days 1 and 8. Subjects randomized to receive a high-fat breakfast were to completely ingest the meal within 20 minutes prior to dosing. The high-fat meal contained approximately 33 g protein, 75 g fat, 58 g carbohydrates and 1000 calories. […] All adverse events were mild in severity."}, "[3]": {"test": "Solubility in aqueous solution", "type": "physicochemical", "conditions": "also micronized"}}, "data": [{"smiles": "COC(=O)C1CC2=CC(=O)CCC2(C)C23OC2CC2(C)C(CC[C@@]24CCC(=O)O4)C13", "note": "(stereo partly drawn) [eplerenone, methyl hydrogen 9,11α-epoxy-17α-hydroxy-3-oxopregn-4-ene-7α,21-dicarboxylate, γ-lactone]", "values": [{"measurement": "increase of relative bioavailability", "setting": "[1]", "result": "~100", "unit": "%"}, {"measurement": "Plasma Renin Active Mean Change From Baseline", "setting": "renin and aldosterone; 25 mg BID", "result": 1.2, "unit": "mU/L"}, {"measurement": "Serum Aldosterone Mean Change From Baseline", "setting": "renin and aldosterone; 25 mg BID", "result": 7.3, "unit": "ng/dL"}, {"measurement": "Plasma Renin Active Mean Change From Baseline", "setting": "renin and aldosterone; 50 mg BID", "result": 15.0, "unit": "mU/L"}, {"measurement": "Serum Aldosterone Mean Change From Baseline", "setting": "renin and aldosterone; 50 mg BID", "result": 10.0, "unit": "ng/dL"}, {"measurement": "Plasma Renin Active Mean Change From Baseline", "setting": "renin and aldosterone; 50 mg QD", "result": 2.9, "unit": "mU/L"}, {"measurement": "Serum Aldosterone Mean Change From Baseline", "setting": "renin and aldosterone; 50 mg QD", "result": 6.0, "unit": "ng/dL"}, {"measurement": "Plasma Renin Active Mean Change From Baseline", "setting": "renin and aldosterone; 100 mg QD", "result": 13.9, "unit": "mU/L"}, {"measurement": "Serum Aldosterone Mean Change From Baseline", "setting": "renin and aldosterone; 100 mg QD", "result": 10.5, "unit": "ng/dL"}, {"measurement": "Plasma Renin Active Mean Change From Baseline", "setting": "renin and aldosterone; 200 mg BID", "result": 32.0, "unit": "mU/L"}, {"measurement": "Serum Aldosterone Mean Change From Baseline", "setting": "renin and aldosterone; 200 mg BID", "result": 32.8, "unit": "ng/dL"}, {"measurement": "Plasma Renin Active Mean Change From Baseline", "setting": "renin and aldosterone; 400 mg QD", "result": 21.2, "unit": "mU/L"}, {"measurement": "Serum Aldosterone Mean Change From Baseline", "setting": "renin and aldosterone; 400 mg QD", "result": 19.2, "unit": "ng/dL"}, {"measurement": "aldosterone compared to placebo", "setting": "renin and aldosterone; eight weeks of dosing", "result": "increases"}, {"measurement": "total and active renin levels", "setting": "renin and aldosterone; eight weeks of dosing", "result": "increases"}, {"measurement": "changes in vital signs or physical examinations", "setting": "[2]", "result": "no clinically significant changes"}, {"measurement": "severity of adverse events", "setting": "[2]", "result": "mild"}, {"measurement": "solubility in aqueous solution", "setting": "[3]", "result": "largely insoluble"}]}]}
